Results: US8673869B2, “Determinants of sensitivity to chemotherapeutic agents” (Western Sydney Local Health District, priority 2004, dated 2014)

Tests used:
[1] = tested on: CHO-K1 cells and SC2 cells; experiment: Carboplatin and oxaliplatin cell survival by modified MTS assay; assay type: cell-based, Chinese hamster; details: 2 hr drug exposure, 6 days incubation, FIG. 9
Procedure: FIG. 9. Effect of carboplatin (A) and oxaliplatin (B) on cell survival in CHO-K1 cells (diamonds) and SC2 cells (squares). Cell survival was measured by modified MTS assay. Results are expressed as a percentage of the vehicle-treated control, as a mean and standard error of triplicate wells from six independent experiments. Results were subjected to a paired t-test where * is p<0.05 and ** is p<0.005.
CHO-K1 and SC2 cells were each seeded into 24-well plates, incubated overnight then exposed to a range of concentrations of carboplatin or oxaliplatin for 2 hr. The drugs were removed, wells washed and the growth media replaced. Cells were incubated for 6 days and cell proliferation measured using a modified colorimetric MTS (3-(4,5-dimethylthiazol-2-yl)-5-(3-carboxy-methoxyphenyl)-2-(4-sulfophenyl)-2H-tetrazolium, inner salt) proliferation assay. MTS solution was added to each well and colour development measured on a plate reader at 490 nm.

CHO-K1 cells = experiment: Cisplatin sensitivity by colony formation (clonogenic assay); assay type: cell-based, Chinese hamster; details: 10 uM cisplatin for 2 hr, colony formation over 6 days, percentage of vehicle-treated control
Procedure: (§1) FIG. 2. Cisplatin sensitivity of CHO cell lines. Parental CHO-K1 and the platinum-sensitive clone SC2 were exposed to a range of cisplatin (CDDP) concentrations for 2 hrs. The drug was then removed and the surviving cell fraction was determined by colony formation over 6 days. Colonies were fixed, stained with 0.1% crystal violet and counted. The results are expressed as a percentage of vehicle-treated control (mean and standard error from duplicate plates in at least three separate experiments) at differing cisplatin (CDDP) concentrations. The present inventors have used a novel approach to identify genes that determine sensitivity to platinum-based chemotherapeutic agents. This strategy utilized the mutant Chinese hamster ovary (CHO) cell line SC2 which is more sensitive to platinum than the parent CHO-K1 cell line. Parental CHO-K1 and mutant CHO cell lines were provided as a gift from Dr I Hickson and Dr C Robson (Imperial Cancer Research Fund, Oxford UK) (Robson, C, et al, 1985). The strategy adopted is outlined in FIG. 1. CHO-K1 cells were mutagenised with ethyl methane sulphonate (EMS). Mutants with altered sensitivity to cisplatin were isolated using replica plating. […] The drug was then removed and the surviving cell fraction was determined by colony formation over 6 days. Colonies were fixed, stained with 0.1% crystal violet and counted. […]

SC2 cells [2] = experiment: as above; assay type: cell-based, Chinese hamster; details: 10 uM cisplatin for 2 hr, colony formation over 6 days, percentage of vehicle-treated control
Procedure: as §1

SC2 cells [3] = experiment: Clonogenic survival of ANKRD1-transfected SC2 clones exposed to cisplatin; assay type: cell-based, Chinese hamster; details: SC2 clones transfected with rat ANKRD1 cDNA vs untransfected and vector control, 6 μM cisplatin, FIG. 5
Procedure: FIG. 5. […] Rat ANKRD1 cDNA was transfected into SC2 cells and transfected clones selected. ANKRD1-transfected clones were exposed to 6 μM cisplatin and the surviving fraction was measured by clonogenic assay. Survival in 4 transfected clones (SC2+ANKRD1) was compared with untransfected SC2 cells and empty vector-control transfected SC2 cells (SC2+vector).
To determine whether ANKRD1 has the ability to decrease sensitivity to cisplatin, rat ANKRD1 cDNA in the pcDNA3.1 expression vector, under the control of a CMV promoter, (a gift from the laboratory of Prof. L. Kedes, University of Southern California, USA) was transfected into the ANKRD1-deficient, platinum-sensitive SC2 mutant using Lipofectamine 2000 (Invitrogen Life Technologies, Carlsbad, Calif., USA). Transfected clones were selected and maintained in 400 μg/ml G-418 (Gibco-BRL).

[4] = tested on: human ovarian and breast cell lines; experiment: Relative cisplatin sensitivity (IC37) by MTS proliferation assay; assay type: cell-based; details: 72 hr drug exposure, FIG. 7B
Procedure: FIG. 7. Expression of ANKRD1 in ovarian and breast cell lines. RNA was extracted from a range of normal and malignant ovarian and breast cell lines. ANKRD1 expression was measured by real-time PCR. A. Results are shown as relative mRNA levels, corrected for human P0 (acidic phosphoprotein P0; also known as 36B4, part of the 60S ribosomal RNA complex) and 18S rRNA. All cell lines are human. HOSE 17.1 and BRE-80 are normal ovarian and breast cell lines respectively; the remaining cell lines are malignant. B. Cisplatin (CDDP) sensitivity was determined for 13 of the cell lines. Survival was determined by MTS assay after exposing the cells to drug for 72 hr. The IC37 is shown for each cell line, results are the mean determined from between two and seven independent experiments. Asterix indicates IC37 not determined. C. Association between growth inhibition by cisplatin (IC37) and expression of ANKRD1 mRNA in 13 cell lines.
Relative cisplatin sensitivity was measured in 13 cell lines using a colorimetric proliferation assay. Cells were seeded into 96-well plates in a volume of 100 μl at 500 to 2000 cells per well. […] IC37 values were calculated for each cell line from survival curves, using data generated from between two to seven independent experiments.

ANKRD1 = ANKRD1 mRNA by real-time PCR in siRNA transfected CHO-K1 cells; assay type: cell-based, Chinese hamster; details: pools of stably transfected CHO-K1 cells, relative to parent CHO-K1, FIG. 6A
Procedure: FIG. 6. Increased sensitivity to cisplatin in CHO-K1 cells following reduction of ANKRD1 expression by siRNA. CHO-K1 were transfected with one of three inserts designed to knock-down ANKRD1 expression by targeting regions of the open reading frame encoding the N-terminus (siRNA41; SEQ ID NO: 5), the central portion (siRNA58; SEQ ID NO: 6) or the C-terminus (siRNA77; SEQ ID NO: 7). Pools (P1) of siRNA transfected cells were selected and maintained in hygromycin B. A. ANKRD1 mRNA was measured by real-time PCR. Results are shown as a percentage of the parent CHO-K1 ANKRD1 mRNA levels and corrected for rodent GAPDH (glyceraldehyde-3-phosphate dehydrogenase) and 18S rRNA. B. Cisplatin (CDDP) sensitivity in CHO-K1 and siRNA transfected cells was measured by clonogenic assay. The results are expressed as the mean and standard error of duplicate plates from at least three separate experiments.
To confirm that ANKRD1 was able to modulate platinum sensitivity, the converse hypothesis was tested, that decreasing ANKRD1 expression in the resistant, CHO-K1 cell line would increase sensitivity. Three 19 bp siRNA oligonucleotides were designed to regions encoding the N- and C-terminus as well as to a central portion of the coding region of the CHO ANKRD1 sequence. The sequences of the sense strands of these siRNA oligonucleotides are shown in SEQ ID NOs: 5 (siRNA41), 6 (siRNA58) and 7 (siRNA77). […]
To examine ANKRD1 mRNA expression, 100 ng of cDNA used as templates in real-time PCR using the ABI PRISM 7700 Sequence Detection System (PE Applied Biosystems). Samples were made up in a final volume of 25 μL with Platinum Quantitative PCR Supermix-UDG (Invitrogen) and 250 nM of each primer set. […] Relative concentrations of ANKRD1 and housekeeping genes were determined by comparison of Ct values to a standard curve produced using a sample containing cDNA produced from RNA of known concentration. […]

| Molecule | resistance of CHO-K1 cells compared to SC2 cells [1] | ANKRD1 expression (mRNA) (ANKRD1) | other results |
| --- | --- | --- | --- |
| N.N.O=C([O-])C1(C(=O)[O-])CCC1.[Pt+2] [carboplatin] | significantly more resistant | – | – |
| O=C1[O][Pt]2([NH][C@@H]3CCCC[C@H]3[NH]2)[O]C1=O [oxaliplatin] | significantly more resistant | – | – |
| N.N.[Cl][Pt][Cl] [cisplatin] | – | – | cell survival (CHO-K1 cells): greater than 80%; cell survival (SC2 cells [2]): less than 2%; resistance to cisplatin after ANKRD1 transfection (SC2 cells [3]): increased resistance; relative cisplatin response (IC37) ([4]; COLO 316, T-47D and MCF-7 cell lines): among the most resistant; relative cisplatin response (IC37) ([4]; HOSE 17.1, A2780 and PEO1 cell lines): amongst the most sensitive |
| siRNA58: 19 bp siRNA targeting the central portion of the ANKRD1 coding region, expressed from pSilencer 2.1-U6 hygro vector (nucleic acid, the letters are possibly those of the target site, 19 bp siRNA targeting the central portion of the ANKRD1 coding region, expressed from pSilencer 2.1-U6 hygro vector) GATCCCGTTCCGTGATATGCTTGAATTTCAAGAGAATTCAAGCATATCACGGAATTTTTTGGAA | – | similarly reduced | – |
| siRNA77: 19 bp siRNA targeting the region of the ANKRD1 open reading frame encoding the C-terminus, expressed from pSilencer 2.1-U6 hygro vector (nucleic acid, the letters are possibly those of the target site, 19 bp siRNA targeting the region of the ANKRD1 open reading frame encoding the C-terminus, expressed from pSilencer 2.1-U6 hygro vector) GATCCCGTGGAACCAAAGCAATATTCTTCAAGAGAGAATATTGCTTTGGTTCCATTTTTTGGAAA | – | similarly reduced | – |
| siRNA41: 19 bp siRNA targeting the region of the ANKRD1 open reading frame encoding the N-terminus, expressed from pSilencer 2.1-U6 hygro vector (nucleic acid, the letters are possibly those of the target site, 19 bp siRNA targeting the region of the ANKRD1 open reading frame encoding the N-terminus, expressed from pSilencer 2.1-U6 hygro vector) GATCCCAGTTCCAGTTGTGAAGGAATTCAAGAGATTCCTTCACAACTGGAACTTTTTTTGGAAA | – | virtually ablated | – |
